Paper PMC8387461, “T cell receptor recognition of hybrid insulin peptides bound to HLA-DQ8” (Nature Communications, 2021)

Test system: CD4+ T cell clone A1.9
Assay: T cell stimulation assay, IFNγ ELISA, clone A1.9
Assay type: cell-based, human
Details: primary clone A1.9, APC EBV-KJ, 24 h, 31-mer C-peptide versus 15mer HIP titration
Description: Fig. 2 Comparison of the stimulatory capacity of full-length proinsulin C-peptide and HIP on T1D CD4 + T cell clones. […] Titration of full-length 31-mer C-peptide ([…], (open circles) and 15mer C-peptide-IAPP2 HIP ([…] (filled circles). Antigen presenting cells (APC) were the EBV line, EBV-KJ, (2 × 10^4 cells/well). APC were cultured for 24 h with the same number (2 × 10^4 cells/well) of the primary CD4 + T-cell clone and the peptide concentration indicated. T-cell response to peptide were indicated by secretion of IFNγ which was measured in triplicate by ELISA and reported as pg/ml. Mean and standard deviations of triplicate IFNγ measurements are shown. Results are representative of two experiments for each clone.
For primary T1D CD4+ T cell clones, cells were thawed and used directly in functional assays. For T cell stimulation assays, cloned CD4+ T cells were incubated with BLCL KJ (; HLA-DQ8 + : HLA-DQA1*03:01, HLA-DQB1*03:02), as APCs, together with synthetic peptides. For the alanine scan experiments, each peptide was added to a final concentration of 10 μM. T cell response to antigen was measured as interferon gamma (IFNγ) secretion into the culture media. The IFNγ concentration in the culture media was determined by ELISA (Biolegend).
Supplementary Figure 8. […]
type) at each position P-3 to P12 are shown. IFNγ was measured in triplicate by ELISA, concentrations are shown in pg/ml. […]

In the case of GQVELGGGNAVEVLK [HIP], the “response of clone to HIP versus proinsulin C-peptide” value is reported as “responds equally to proinsulin C-peptide or HIP”.
